Measured values from US8871753B2, “Macrocyclic compounds and their use as kinase inhibitors” (Incyte Corporation, priority 2008, dated 2014).
Counter-ions that a name gives are not always drawn. Like-named read-outs stand apart in the source and are kept apart here.

How the values were obtained:
Format in all cases: biochemical
[1] = target: T1, human JAK1 (a.a. 837-1142) (Homo sapiens, UniProt P23458); experiment: In vitro JAK kinase assay (HTRF, phosphorylation of a biotinylated peptide), JAK1; conditions: read-out: JAK1 IC50
T1 construct: human JAK1 (a.a. 837-1142); His tag (N); made in house; host or cells: insect cells (baculovirus)
T1 sequence (P23458 849-1154): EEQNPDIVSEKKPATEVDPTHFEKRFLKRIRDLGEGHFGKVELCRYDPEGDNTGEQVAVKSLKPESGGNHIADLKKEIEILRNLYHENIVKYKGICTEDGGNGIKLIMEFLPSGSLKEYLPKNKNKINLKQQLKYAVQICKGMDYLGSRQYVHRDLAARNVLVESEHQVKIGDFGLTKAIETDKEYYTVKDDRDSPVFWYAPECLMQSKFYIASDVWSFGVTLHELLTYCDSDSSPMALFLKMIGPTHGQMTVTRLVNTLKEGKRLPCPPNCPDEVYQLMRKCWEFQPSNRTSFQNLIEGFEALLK
How it was run: (§1)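 Kinase activity was measured as phosphorylation of a biotinylated peptide, with ATP at 90 μM for JAK1, 30 μM for JAK2 and 3 μM for JAK3. Reactions ran 1 hr at room temperature, were stopped with EDTA plus SA-APC and Eu-Py20, and were read by HTRF after 40 minutes of antibody binding.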

[2] = target: T2, human JAK2 (a.a. 828-1132) (Homo sapiens, UniProt O60674); experiment: In vitro JAK kinase assay (HTRF, phosphorylation of a biotinylated peptide), JAK2
T2 construct: JAK2 (a.a. 828-1132); His tag (N); made in house; host or cells: insect cells (baculovirus)
T2 sequence (O60674 828-1132): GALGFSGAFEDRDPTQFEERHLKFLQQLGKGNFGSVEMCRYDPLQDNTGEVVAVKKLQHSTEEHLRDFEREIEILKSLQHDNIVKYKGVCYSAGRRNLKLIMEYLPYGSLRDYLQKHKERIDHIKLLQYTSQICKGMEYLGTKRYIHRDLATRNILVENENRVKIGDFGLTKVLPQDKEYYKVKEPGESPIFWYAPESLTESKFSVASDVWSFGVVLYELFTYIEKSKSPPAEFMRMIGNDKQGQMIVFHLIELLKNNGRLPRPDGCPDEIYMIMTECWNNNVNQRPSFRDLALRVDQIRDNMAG
How it was run: as §1

[3] = target: T3, human JAK3 (a.a. 781-1124) (Homo sapiens, UniProt P52333); experiment: In vitro JAK kinase assay (HTRF, phosphorylation of a biotinylated peptide), JAK3
T3 construct: JAK3 (a.a. 781-1124); His tag (N); made in house; host or cells: insect cells (baculovirus)
T3 sequence (P52333 781-1124): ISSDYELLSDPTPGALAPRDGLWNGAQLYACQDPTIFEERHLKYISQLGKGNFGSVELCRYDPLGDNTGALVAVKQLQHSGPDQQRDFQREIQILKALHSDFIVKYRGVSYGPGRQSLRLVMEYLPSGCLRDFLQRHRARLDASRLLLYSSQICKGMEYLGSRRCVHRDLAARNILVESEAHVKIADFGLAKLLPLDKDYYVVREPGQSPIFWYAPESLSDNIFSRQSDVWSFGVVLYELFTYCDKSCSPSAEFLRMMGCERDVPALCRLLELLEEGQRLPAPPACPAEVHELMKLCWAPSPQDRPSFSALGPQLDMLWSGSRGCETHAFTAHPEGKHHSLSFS
How it was run: as §1

TYK2 = TYK2 (Homo sapiens, UniProt P29597); experiment: TYK2 kinase inhibition (Table A1)
TYK2, sequence (P29597 whole entry): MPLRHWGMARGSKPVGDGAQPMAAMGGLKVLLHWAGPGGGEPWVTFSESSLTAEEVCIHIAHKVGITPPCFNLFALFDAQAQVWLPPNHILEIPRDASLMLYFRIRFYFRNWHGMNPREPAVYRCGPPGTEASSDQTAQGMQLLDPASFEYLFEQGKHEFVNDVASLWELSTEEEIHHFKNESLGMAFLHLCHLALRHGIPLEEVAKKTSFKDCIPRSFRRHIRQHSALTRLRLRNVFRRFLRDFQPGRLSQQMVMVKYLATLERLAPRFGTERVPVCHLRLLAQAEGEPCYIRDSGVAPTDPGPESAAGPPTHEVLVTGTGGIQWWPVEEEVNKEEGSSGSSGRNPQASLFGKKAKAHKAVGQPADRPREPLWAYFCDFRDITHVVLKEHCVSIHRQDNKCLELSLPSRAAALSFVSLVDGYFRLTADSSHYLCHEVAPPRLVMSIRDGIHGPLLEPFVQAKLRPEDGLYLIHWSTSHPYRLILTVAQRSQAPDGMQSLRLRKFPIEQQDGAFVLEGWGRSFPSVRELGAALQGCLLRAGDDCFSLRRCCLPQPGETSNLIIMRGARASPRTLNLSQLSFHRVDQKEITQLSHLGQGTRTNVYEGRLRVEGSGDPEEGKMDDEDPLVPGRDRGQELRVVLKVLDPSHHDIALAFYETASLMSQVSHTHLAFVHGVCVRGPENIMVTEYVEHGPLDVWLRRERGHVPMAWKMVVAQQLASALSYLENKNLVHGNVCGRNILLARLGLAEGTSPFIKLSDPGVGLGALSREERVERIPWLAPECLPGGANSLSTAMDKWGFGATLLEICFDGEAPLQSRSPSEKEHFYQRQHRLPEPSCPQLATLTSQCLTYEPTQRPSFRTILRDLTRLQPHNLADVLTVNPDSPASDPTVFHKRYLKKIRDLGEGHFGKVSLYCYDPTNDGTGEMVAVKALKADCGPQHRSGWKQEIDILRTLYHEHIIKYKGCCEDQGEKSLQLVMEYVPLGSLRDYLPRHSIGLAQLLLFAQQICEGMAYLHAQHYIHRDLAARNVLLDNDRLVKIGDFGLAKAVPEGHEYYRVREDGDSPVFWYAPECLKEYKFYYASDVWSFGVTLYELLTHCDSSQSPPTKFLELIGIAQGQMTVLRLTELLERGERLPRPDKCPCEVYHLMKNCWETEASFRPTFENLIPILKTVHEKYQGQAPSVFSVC

[4] = target: T4, Recombinant Human Anaplastic Lymphoma Kinase (Homo sapiens, UniProt Q9UM73); experiment: ALK HTRF kinase assay
T4 construct: purchased Invitrogen, Carlsbad, Calif
T4 sequence (Q9UM73 19-1620): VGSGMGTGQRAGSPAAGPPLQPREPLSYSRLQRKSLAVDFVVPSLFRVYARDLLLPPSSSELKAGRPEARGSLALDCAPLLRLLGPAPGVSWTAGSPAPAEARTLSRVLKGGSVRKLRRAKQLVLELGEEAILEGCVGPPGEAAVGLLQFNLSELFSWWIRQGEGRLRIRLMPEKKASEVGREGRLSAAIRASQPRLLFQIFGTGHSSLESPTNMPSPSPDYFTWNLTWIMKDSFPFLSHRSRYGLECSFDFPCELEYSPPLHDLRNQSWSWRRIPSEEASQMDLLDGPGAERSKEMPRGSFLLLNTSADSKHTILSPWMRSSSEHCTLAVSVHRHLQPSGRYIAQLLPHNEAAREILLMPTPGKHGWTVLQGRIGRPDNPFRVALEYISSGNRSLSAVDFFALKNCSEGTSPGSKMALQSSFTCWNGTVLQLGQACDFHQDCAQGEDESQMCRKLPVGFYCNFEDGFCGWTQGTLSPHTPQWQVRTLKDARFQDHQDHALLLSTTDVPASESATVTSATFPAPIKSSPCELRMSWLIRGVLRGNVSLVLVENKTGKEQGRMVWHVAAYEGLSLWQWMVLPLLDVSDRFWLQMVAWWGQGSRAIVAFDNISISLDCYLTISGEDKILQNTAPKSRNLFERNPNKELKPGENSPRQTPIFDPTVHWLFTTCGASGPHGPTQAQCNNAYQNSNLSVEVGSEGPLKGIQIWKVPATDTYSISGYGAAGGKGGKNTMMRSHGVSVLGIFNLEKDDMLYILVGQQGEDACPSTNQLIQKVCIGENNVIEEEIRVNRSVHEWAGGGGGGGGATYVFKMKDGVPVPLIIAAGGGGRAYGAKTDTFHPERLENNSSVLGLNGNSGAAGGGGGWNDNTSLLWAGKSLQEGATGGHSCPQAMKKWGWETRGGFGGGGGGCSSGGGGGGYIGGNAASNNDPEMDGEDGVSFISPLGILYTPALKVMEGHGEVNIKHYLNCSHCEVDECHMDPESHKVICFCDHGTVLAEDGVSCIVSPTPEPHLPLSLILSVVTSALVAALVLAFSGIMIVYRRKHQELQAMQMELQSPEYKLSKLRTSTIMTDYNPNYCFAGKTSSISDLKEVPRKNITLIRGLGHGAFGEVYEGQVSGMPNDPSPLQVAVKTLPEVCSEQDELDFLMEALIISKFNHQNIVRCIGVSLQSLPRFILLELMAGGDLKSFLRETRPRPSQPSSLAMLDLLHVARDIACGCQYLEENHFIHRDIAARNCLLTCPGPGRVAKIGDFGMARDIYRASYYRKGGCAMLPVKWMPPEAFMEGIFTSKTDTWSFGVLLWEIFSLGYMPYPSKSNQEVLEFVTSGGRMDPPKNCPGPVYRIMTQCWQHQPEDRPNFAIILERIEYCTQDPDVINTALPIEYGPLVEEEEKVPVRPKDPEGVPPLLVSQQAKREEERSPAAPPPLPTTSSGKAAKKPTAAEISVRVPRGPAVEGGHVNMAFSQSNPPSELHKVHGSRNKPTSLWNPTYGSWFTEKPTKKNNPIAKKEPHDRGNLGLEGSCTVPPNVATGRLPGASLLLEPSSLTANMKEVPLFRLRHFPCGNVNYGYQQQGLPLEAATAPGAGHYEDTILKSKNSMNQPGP
How it was run: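 TR-FRET read-out (Eu anti-pTyr antibody + streptavidin-APC) of biotin-peptide phosphorylation by recombinant human enzyme; IC50 by sigmoidal fit with top/bottom baselines and Hill slope.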

[5] = Table B1, cells without percent sign
[6] = method AA1 (90 μM ATP) or AA2 (1000 μM ATP), not stated per value
[7] = method AA1 (30 μM ATP) or AA2 (1000 μM ATP), not stated per value
[8] = method AA1 (3 μM ATP) or AA2 (1000 μM ATP), not stated per value
[9] = compound at 500 nM or 1 mM, 90 μM ATP
[10] = percentage inhibition of the example compound at a concentration of 500 nM or 1 mM (not specified which)
[11] = compound at a concentration of 500 nM or 1 mM (not specified), cells shown as percentage

Row | SMILES | IC50 ([1]; Table B1) [nM] | IC50 ([2]; Table B1) [nM] | IC50 ([3]; Table B1) [nM] | IC50 (TYK2; Table B1) [nM] | IC50 [1, 6] [nM] | IC50 [2, 7] [nM] | IC50 [3, 8] [nM] | IC50 (TYK2) [nM] | ALK % of inhibition at a concentration of 500 nM or 1 mM [4, 9] [%] | other results
1 | CC(C)(C)OC(=O)N1CCC(C(=O)Nc2ccc3cc2CCc2cccc(c2)Nc2ncc(Cl)c(n2)N3)CC1 [Example A27, tert-Butyl 4-({[6-chloro-2,4,8,22-tetraazatetracyclo[14.3.1.1(3,7).1(9,13)]docosa-1(20),3(22),4,6,9(21),10,12,16,18-nonaen-12-yl]amino}carbonyl)piperidine-1-carboxylate trifluoroacetate] | – | – | – | – | 61 | 56 | 124 | 43 | 21 | –
2 | N#Cc1ccc2cc1OCCSc1cccc(c1)Nc1nc(ncc1Cl)N2 [Example D81, 6-Chloro-17-oxa-14-thia-2,4,8,24-tetraazatetracyclo[16.3.1.1(3,7).1(9,13)]tetracosa-1(22),3(24),4,6,9(23),10,12,18,20-nonaene-19-carbonitrile trifluoroacetate] | – | – | – | – | – | – | – | – | – | IC50 ([1]; Table D1): 12 nM; IC50 ([2]; Table D1): 16 nM; IC50 ([3]; Table D1): 130 nM; IC50 (TYK2; Table D1): 53 nM; IC50 ([4]; Table D1, 90 μM ATP): > 10000 nM
3 | O=C(CC1CCN(S(=O)(=O)c2ccccc2C(F)(F)F)CC1)Nc1ccc2cc1CCc1cncc(c1)Nc1ncc(Cl)c(n1)N2 [Example A224, N-[6-Chloro-2,4,8,18,22-pentaazatetracyclo[14.3.1.1(3,7).1(9,13)]docosa-1(20),3(22),4,6,9(21),10,12,16,18-nonaen-12-yl]-2-(1-{[2-(trifluoromethyl)phenyl]sulfonyl}piperidin-4-yl)acetamide bis(trifluoroacetate)] | – | – | – | – | 14 | > 400 | > 400 | > 400 | 30 | –
4 | CC(=O)N1Cc2cccc(c2)Nc2ncc(Cl)c(n2)Nc2cccc(c2)C1 [Example D74, 15-Acetyl-6-chloro-2,4,8,15,23-pentaazatetracyclo[15.3.1.1(3,7).1(9,13)]tricosa-1(21),3(23),4,6,9(22),10,12,17,19-nonaene trifluoroacetate] | – | – | – | – | – | – | – | – | – | IC50 ([1]; Table D1): 160 nM; IC50 ([2]; Table D1): 83 nM; IC50 ([3]; Table D1): 225 nM; IC50 (TYK2; Table D1): 343 nM; IC50 ([4]; Table D1, 90 μM ATP): > 1000 nM
5 | O=C(CC1CCN(C(=O)NCc2ccccc2)CC1)Nc1ccc2cc1CCc1cncc(c1)Nc1ncc(Cl)c(n1)N2 [Example A155, N-Benzyl-4-(2-{[6-chloro-2,4,8,18,22-pentaazatetracyclo[14.3.1.1(3,7).1(9,13)]docosa-1(20),3(22),4,6,9(21),10,12,16,18-nonaen-12-yl]amino}-2-oxoethyl)piperidine-1-carboxamide bis(trifluoroacetate)] | – | – | – | – | 2.4 | 4.2 | > 100 | 3.8 | 47 | –
6 | O=C(Nc1cc2cc(c1)OCCSc1cccc(c1)Nc1nc(ncc1Cl)N2)c1cccs1 [Example D63, N-[6-Chloro-17-oxa-14-thia-2,4,8,24-tetraazatetracyclo[16.3.1.1(3,7).1(9,13)]tetracosa-1(22),3(24),4,6,9(23),10,12,18,20-nonaen-20-yl]thiophene-2-carboxamide trifluoroacetate] | – | – | – | – | – | – | – | – | – | IC50 ([1]; Table D1): 6.8 nM; IC50 ([2]; Table D1): 1.5 nM; IC50 ([3]; Table D1): 19 nM; IC50 (TYK2; Table D1): 5.4 nM; IC50 ([4]; Table D1, 90 μM ATP): 610 nM
7 | N#Cc1ccc(NC(=O)N2CCC(CC(=O)Nc3ccc4cc3CCc3cncc(c3)Nc3ncc(Cl)c(n3)N4)CC2)cc1 [Example A143, 4-(2-{[6-Chloro-2,4,8,18,22-pentaazatetracyclo[14.3.1.1(3,7).1(9,13)]docosa-1(20),3(22),4,6,9(21),10,12,16,18-nonaen-12-yl]amino}-2-oxoethyl)-N-(4-cyanophenyl)piperidine-1-carboxamide bis(trifluoroacetate)] | – | – | – | – | 2.2 | 1.8 | > 100 | 1.2 | 63 | –
8 | Cn1cc(C(=O)N2CCC(CC(=O)Nc3ccc4cc3CCc3cncc(c3)Nc3ncc(Cl)c(n3)N4)CC2)cn1 [Example A129, N-[6-Chloro-2,4,8,18,22-pentaazatetracyclo[14.3.1.1(3,7).1(9,13)]docosa-1(20),3(22),4,6,9(21),10,12,16,18-nonaen-12-yl]-2-{1-[(1-methyl-1H-pyrazol-4-yl)carbonyl]piperidin-4-yl}acetamide bis(trifluoroacetate)] | – | – | – | – | 12 | 17 | 178 | 24 | 32 | –

More lines, main results first:

Row | IC50 ([1]; Table B1) [nM] | IC50 ([2]; Table B1) [nM] | IC50 ([3]; Table B1) [nM] | IC50 (TYK2; Table B1) [nM] | IC50 [1, 6] [nM] | IC50 [2, 7] [nM] | IC50 [3, 8] [nM] | IC50 (TYK2) [nM] | ALK % of inhibition at a concentration of 500 nM or 1 mM [4, 9] [%] | SMILES | other results
9 | 0.59 | 0.54 | 3.6 | 1.4 | – | – | – | – | – | O=C(Nc1ccc2cc1CCc1cccc(c1)Nc1ncc(Cl)c(n1)N2)c1ccc(F)cc1 [Example B49, N-[6-Chloro-2,4,8,22-tetraazatetracyclo[14.3.1.1(3,7).1(9,13)]docosa-1(20), 3(22),4,6,9(21),10,12,16,18-nonaen-12-yl]-4-fluorobenzamide trifluoroacetate] | IC50 [4, 5]: 80 nM
10 | 48 | 371 | > 400 | > 400 | – | – | – | – | – | O=C(Nc1ccc2cc1CCc1cncc(c1)Nc1ncc(Cl)c(n1)N2)N1CCC(c2cnccn2)C1 (centres unmarked) [Example B313, N-[6-Chloro-2,4,8,18,22-pentaazatetracyclo[14.3.1.1(3,7).1(9,13)]docosa-1(20),3(22),4,6,9(21),10,12,16,18-nonaen-12-yl]-3-pyrazin-2-ylpyrrolidine-1-carboxamide tetrakis(trifluoroacetate)] | ALK % of inhibition at a concentration of 500 nM or 1 mM [4, 10]: 20%
11 | 4 | 42 | 306 | 62 | – | – | – | – | – | CC(=O)N1CC[C@H](NC(=O)Nc2ccc3cc2CCc2cncc(c2)Nc2ncc(Cl)c(n2)N3)C1 [Example B226, N-[(3S)-1-Acetylpyrrolidin-3-yl]-N′-[6-chloro-2,4,8,18,22-pentaazatetracyclo[14.3.1.1(3,7).1(9,13)]docosa-1(20),3(22),4,6,9(21),10,12,16,18-nonaen-12-yl]urea bis(trifluoroacetate)] | ALK % of inhibition at a concentration of 500 nM or 1 mM [4, 11]: 15%
12 | 4 | 6.5 | 40 | 11 | – | – | – | – | – | O=C(Nc1ccc2cc1CCc1cccc(c1)Nc1ncc(Cl)c(n1)N2)N[C@H]1CCN(C(=O)c2ccncc2)C1 [Example B234, N-[6-Chloro-2,4,8,22-tetraazatetracyclo[14.3.1.1(3,7).1(9,13)]docosa-1(20),3(22),4,6,9(21),10,12,16,18-nonaen-12-yl]-N′-[(3S)-1-isonicotinoylpyrrolidin-3-yl]urea bis(trifluoroacetate)] | ALK % of inhibition at a concentration of 500 nM or 1 mM [4, 11]: 31%
13 | 4.9 | 3.9 | 5.9 | 14 | – | – | – | – | – | CCC(=O)Nc1ccc2cc1CCc1cccc(c1)Nc1ncc(Cl)c(n1)N2 [Example B54, N-[6-Chloro-2,4,8,22-tetraazatetracyclo[14.3.1.1(3,7).1(9,13)]docosa-1(20), 3(22),4,6,9(21),10,12,16,18-nonaen-12-yl]propanamide trifluoroacetate] | IC50 [4, 5]: 970 nM
14 | 0.24 | 0.48 | 3.3 | 1.7 | – | – | – | – | – | O=C(Nc1ccc2cc1CCc1cccc(c1)Nc1ncc(Cl)c(n1)N2)c1ccccc1 [Example B29, N-[6-Chloro-2,4,8,22-tetraazatetracyclo[14.3.1.1(3,7).1(9,13)]docosa-1(20), 3(22),4,6,9(21),10,12,16,18-nonaen-12-yl]benzamide trifluoroacetate] | IC50 [4, 5]: 96 nM
15 | 5.5 | 14 | 53 | 25 | – | – | – | – | – | O=C(NCCN1CCCC1)Nc1ccc2cc1CCc1cccc(c1)Nc1ncc(Cl)c(n1)N2 [Example B255, N-[6-Chloro-2,4,8,22-tetraazatetracyclo[14.3.1.1(3,7).1(9,13)]docosa-1(20),3(22),4,6,9(21),10,12,16,18-nonaen-12-yl]-N′-(2-pyrrolidin-1-ylethyl)urea bis(trifluoroacetate)] | ALK % of inhibition at a concentration of 500 nM or 1 mM [4, 11]: 32%
16 | 2 | 1.8 | 4.2 | 5 | – | – | – | – | – | O=C(NCCNS(=O)(=O)C1CC1)Nc1ccc2cc1CCc1cccc(c1)Nc1ncc(Cl)c(n1)N2 [Example B327, N-{2-[({[6-Chloro-2,4,8,22-tetraazatetracyclo[14.3.1.1(3,7).1(9,13)]docosa-1(20),3(22),4,6,9(21),10,12,16,18-nonaen-12-yl]amino}carbonyl)amino]ethyl}cyclopropanesulfonamide trifluoroacetate] | ALK % of inhibition at a concentration of 500 nM or 1 mM [4, 10]: 19%
